Reference: patent publication US9499476B2, “Acetamide stereoisomer” (SUNOVION PHARMACEUTICALS INC., priority 2007, dated 2016)
Marks after values point to notes of the source that are not given here.

How the values were obtained:
[1] = Stability in aqueous buffered solutions (HPLC assay); format: physicochemical
Experimental: Stability in Aqueous Buffered Solutions
Solution Preparations: For each test compound, the following solutions are prepared.
• Solution A is prepared from ˜30 mg of the test compound in 150 mL of 0.005 M citrate buffer, pH 5.0 (˜0.2 mg/mL). • Solution B is prepared as follows: approximately 30 mL aliquot of Solution A is transferred to a separated container and the pH of the solution is adjusted to pH 3.0 with 1 N HCl (˜0.2 mL). • Solution C is prepared as follows: approximately 30 mL aliquot of Solution A is transferred to a separated container and the pH of the solution is adjusted to pH ˜8.0 with 1 N NaOH (˜0.2 mL). • Note: Because the volume of 1 N HCl or 1 N NaOH used for adjusting pH was negligible, the concentration of test compound in Solutions A, B and C were the same.
Storage Scheme • As soon as the above solutions were prepared, aliquots of each solution were transferred into 11 vials, of which 9 vials are stored at −20° C., and one each is stored at 30° C. and 40° C., respectively. • At each interval listed below, two vials are removed from −20° C. storage, and stored at 30° C. and 40° C., respectively. • The corresponding weeks under the storage condition (30° C. or 40° C.) are shown in the table below.
On Week 12, the last vial stored at −20° C. is removed and warmed up to the room temperature, which is the Day 0 Solution.
Sample Analysis: On Week 12, all solutions are assayed by an HPLC method using the Day 0 Solution at pH 5 as a standard solution. The test compounds were assayed by HPLC with UV detection (refer to Table 1 for method conditions).

adrenergic β1 receptors = adrenergic β1 receptors (Cavia porcellus, UniProt H0W3H1); experiment: β1 adrenergic functional activity, positive chronotropic effect in isolated right atria; set-up: species or system Dunkin Hartley Guinea pigs; conditions: read-out: increase in heart rate, β1 functional assay
adrenergic β1 receptors, sequence (H0W3H1 1-470): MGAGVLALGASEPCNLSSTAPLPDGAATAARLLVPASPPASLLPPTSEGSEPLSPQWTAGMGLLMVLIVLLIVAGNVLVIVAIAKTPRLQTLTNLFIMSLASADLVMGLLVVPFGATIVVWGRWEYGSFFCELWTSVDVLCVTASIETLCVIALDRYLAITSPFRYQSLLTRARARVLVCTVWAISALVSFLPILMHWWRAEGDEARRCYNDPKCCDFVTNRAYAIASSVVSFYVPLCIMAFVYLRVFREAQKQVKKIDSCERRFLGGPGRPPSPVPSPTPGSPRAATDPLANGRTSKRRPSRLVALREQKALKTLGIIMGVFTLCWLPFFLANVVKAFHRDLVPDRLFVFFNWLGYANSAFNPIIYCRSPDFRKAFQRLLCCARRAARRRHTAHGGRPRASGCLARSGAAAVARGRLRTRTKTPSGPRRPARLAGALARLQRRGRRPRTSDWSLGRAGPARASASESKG
Text: β1 and β2 Adrenergic Activity (Functional)
The concentration that gives 50% maximal effect is the EC50.

[2] = biological target: T1, human recombinant β2 receptors (Homo sapiens, UniProt P07550); experiment: β2 radioligand binding assay
T1 sequence (P07550 whole entry): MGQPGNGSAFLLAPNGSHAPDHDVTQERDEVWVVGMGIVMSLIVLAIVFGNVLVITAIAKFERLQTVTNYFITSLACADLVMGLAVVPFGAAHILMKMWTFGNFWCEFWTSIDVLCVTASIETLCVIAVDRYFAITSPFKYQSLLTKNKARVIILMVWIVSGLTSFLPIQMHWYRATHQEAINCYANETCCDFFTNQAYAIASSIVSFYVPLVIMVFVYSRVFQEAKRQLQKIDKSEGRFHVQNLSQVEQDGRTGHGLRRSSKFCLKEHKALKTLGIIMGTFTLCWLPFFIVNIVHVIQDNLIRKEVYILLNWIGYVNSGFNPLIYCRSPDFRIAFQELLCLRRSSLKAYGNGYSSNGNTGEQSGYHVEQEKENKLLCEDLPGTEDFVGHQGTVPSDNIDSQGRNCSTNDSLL

[3] = biological target: T1, human recombinant β2 receptors; experiment: Intrinsic activity assessment (β2), cAMP production in CHO cells; format: cell-based; conditions: relative to procaterol, read-out: intrinsic activity (% response relative to procaterol-induced cAMP increase)
adrenergic β2 receptors = biological target: T2, adrenergic β2 receptors (Cavia porcellus, UniProt Q8K4Z4); experiment: β2 adrenergic functional activity, relaxation of spontaneous tone of isolated trachea; set-up: species or system Dunkin Hartley Guinea pigs
T2 construct: from tissue; host or cells: isolated trachea, Dunkin Hartley guinea pig
T2 sequence (Q8K4Z4 whole entry): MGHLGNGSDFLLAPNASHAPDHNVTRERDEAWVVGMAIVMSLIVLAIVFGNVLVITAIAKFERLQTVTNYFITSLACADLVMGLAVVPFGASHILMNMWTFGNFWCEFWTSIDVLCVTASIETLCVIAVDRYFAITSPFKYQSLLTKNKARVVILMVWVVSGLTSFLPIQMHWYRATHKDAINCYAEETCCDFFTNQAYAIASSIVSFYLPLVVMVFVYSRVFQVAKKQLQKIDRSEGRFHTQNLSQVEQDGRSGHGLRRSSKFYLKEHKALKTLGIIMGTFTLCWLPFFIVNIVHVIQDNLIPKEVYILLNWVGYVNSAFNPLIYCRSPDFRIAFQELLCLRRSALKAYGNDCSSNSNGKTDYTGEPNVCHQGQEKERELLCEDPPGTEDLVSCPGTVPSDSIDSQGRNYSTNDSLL

[4] = biological target: T3, human recombinant β1 receptors (Homo sapiens, UniProt P08588); experiment: β1 radioligand binding assay
T3 construct: expressed in transfected cells; host or cells: CHO cells
T3 sequence (P08588 whole entry): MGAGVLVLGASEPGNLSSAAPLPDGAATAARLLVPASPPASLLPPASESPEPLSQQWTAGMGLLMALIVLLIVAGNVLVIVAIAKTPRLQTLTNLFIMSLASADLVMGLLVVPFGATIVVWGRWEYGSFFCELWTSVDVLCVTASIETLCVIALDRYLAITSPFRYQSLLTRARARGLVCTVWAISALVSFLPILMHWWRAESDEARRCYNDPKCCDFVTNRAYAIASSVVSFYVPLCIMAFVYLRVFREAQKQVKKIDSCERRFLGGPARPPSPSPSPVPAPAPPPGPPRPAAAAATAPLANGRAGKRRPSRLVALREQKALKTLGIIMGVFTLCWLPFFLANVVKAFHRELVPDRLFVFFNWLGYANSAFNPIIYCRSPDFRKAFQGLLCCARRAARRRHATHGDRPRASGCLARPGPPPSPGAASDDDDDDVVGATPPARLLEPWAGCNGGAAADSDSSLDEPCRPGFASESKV

CC(=O)Nc1cc([C@H](O)CN[C@H](C)Cc2ccc(O)cc2)ccc1O [Example 1, N-[2-hydroxy-5-[(1S)-1-hydroxy-2-[[(1R)-2-(4-hydroxyphenyl)-1-methylethyl]amino]ethyl]phenyl]acetamide]
% of Initial Concentration ([1]; pH 3.0, 30° C., 0 wk): 99.46% | % of Initial Concentration ([1]; pH 3.0, 30° C., 1 wk): 100.03% | % of Initial Concentration ([1]; pH 3.0, 30° C., 2 wk): 99.84% | % of Initial Concentration ([1]; pH 3.0, 30° C., 4 wk): 101.41% | % of Initial Concentration ([1]; pH 3.0, 30° C., 8 wk): 100.33% | % of Initial Concentration ([1]; pH 3.0, 30° C., 12 wk): 100.29% | % of Initial Concentration ([1]; pH 3.0, 40° C., 0 wk): 99.46% | % of Initial Concentration ([1]; pH 3.0, 40° C., 1 wk): 99.89% | % of Initial Concentration ([1]; pH 3.0, 40° C., 2 wk): 100.11% | % of Initial Concentration ([1]; pH 3.0, 40° C., 4 wk): 99.54% | % of Initial Concentration ([1]; pH 3.0, 40° C., 8 wk): 99.18% | % of Initial Concentration ([1]; pH 3.0, 40° C., 12 wk): 97.17% | time found to be very stable in aqueous solution ([1]; pH 3 or 5, stored at 30° C.): at least 12 weeks | % of Initial Concentration ([1]; pH 5.0, 30° C., 0 wk): 100.25% | % of Initial Concentration ([1]; pH 5.0, 30° C., 1 wk): 101.22% | % of Initial Concentration ([1]; pH 5.0, 30° C., 2 wk): 101.07% | % of Initial Concentration ([1]; pH 5.0, 30° C., 4 wk, flagged out of trend): 112.52* % | % of Initial Concentration ([1]; pH 5.0, 30° C., 8 wk): 107.12% | % of Initial Concentration ([1]; pH 5.0, 30° C., 12 wk): 107.75% | % of Initial Concentration ([1]; pH 5.0, 40° C., 0 wk): 100.25% | % of Initial Concentration ([1]; pH 5.0, 40° C., 1 wk): 102.00% | % of Initial Concentration ([1]; pH 5.0, 40° C., 2 wk): 102.73% | % of Initial Concentration ([1]; pH 5.0, 40° C., 4 wk): 102.94% | % of Initial Concentration ([1]; pH 5.0, 40° C., 8 wk, flagged out of trend): 122.32* % | % of Initial Concentration ([1]; pH 5.0, 40° C., 12 wk, flagged out of trend): 112.61* % | % of Initial Concentration ([1]; ~pH 8, 30° C., 0 wk): 100.38% | % of Initial Concentration ([1]; ~pH 8, 30° C., 1 wk): 99.64% | % of Initial Concentration ([1]; ~pH 8, 30° C., 2 wk): 99.60% | % of Initial Concentration ([1]; ~pH 8, 30° C., 4 wk): 96.62% | % of Initial Concentration ([1]; ~pH 8, 30° C., 8 wk, flagged out of trend): 26.79* % | % of Initial Concentration ([1]; ~pH 8, 30° C., 12 wk): 89.93% | % of Initial Concentration ([1]; ~pH 8, 40° C., 0 wk): 100.38% | % of Initial Concentration ([1]; ~pH 8, 40° C., 1 wk): 97.44% | % of Initial Concentration ([1]; ~pH 8, 40° C., 2 wk): 93.75% | % of Initial Concentration ([1]; ~pH 8, 40° C., 4 wk): 86.72% | % of Initial Concentration ([1]; ~pH 8, 40° C., 8 wk): 72.25% | % of Initial Concentration ([1]; ~pH 8, 40° C., 12 wk): 61.36% | activation at 30 µM (adrenergic β1 receptors): 32% | melting point: 97 to 100 °C | Ki ([2]; displacement of [3H]-CGP-12177, CHO cells, read-out: Ki for the β2 receptor): 2210 nM | β1/β2 binding ratio ([2]; ratio of β1 to β2 binding Ki): > 9 | Emax [3]: 71% | EC50 (adrenergic β2 receptors; isolated guinea pig trachea): 120 nM | β1/β2 functional ratio (adrenergic β2 receptors; ratio of β1 to β2 functional EC50): > 250 | inhibition at 20 µM ([4]; at a concentration of 20 μM, read-out: inhibition of specific binding, β1 receptor): 30% | Ki ([4]; displacement of [125I]-cyanopidolol, CHO cells, read-out: Ki for the β1 receptor): > 20000 nM
